# Laboratory results reported in patent US20100203524A1, “POLYMERASES AND METHODS OF USE THEREOF” (Helicos Biosciences Corporation, priority 2008, published 2010).
# What was measured:
# [1] = tested on: dNTP-F1 / scarred primer terminus; assay: Sequencing-like kinetic assay: extension of scarred primer terminus with dNTP-F1 by Taq or Taq197; assay type: biochemical; conditions: 37° C., 40 nM enzyme, 10 nM DNA, 100 nM dNTP-F1
# Description: Scarred primers were prepared enzymatically; following annealing of natural primers (bearing Rhodamine 110 dye-label, purchased from IDT) to templates, 15 U Klenow fragment (exo−) (New England Biolabs) in its supplied buffer was incubated with 5 μM DNA and 25 μM scarred dNTPs in 100 μL for 20 minutes at room temperature to incorporate scarred nucleotides onto the primer. Upon completion, reaction mixtures were heated at 70° C. for 15 minutes to inactivate Klenow fragment and purified from the scarred dNTPs using a DTR spin column (Edge BioSystems). Scarred primers were observed on an ABI3730 DNA sequencer and conversion to the desired scarred primer was greater than 95%.
# Polymerases were added to a mixture containing scarred DNA (prepared in previous section), modified dNTPs, and reaction buffer and incubated at either 37° C. or 50° C. and aliquots removed at variable time points and added directly to a quenching solution containing 100 mM EDTA. Reaction products were characterized on an ABI3730 sequencer using the GeneScan™ LIZ 120® size standard (Applied Biosystems) as a reference. The ratio of peak heights, obtained using ABI Peak Scanner (v1.0), was used to calculate percent primer conversion as a function of time and the data was fit to a first order exponential (Prism 4 by GraphPad).
# The mutations found in Sf168, Sf197, and Sf267 were cloned into full length Taq, and extension of a scarred primer terminus was characterized by measuring the rate of incorporation of each dNTP-F1 by Taq or a selected mutant. Taq197 (corresponding to the mutations from Sf197) was the most optimized of the three polymerase mutants, incorporating each dNTP-F1 48- to 377-fold more efficiently than wild type Taq, with no apparent bias toward the identity of the dNTP-F1 or the sequence of the primer, as shown in Table 7 below. Buffer conditions were as follows: 20 mM Tris pH 8.8, 10 mM NaCl, 10 mM KCl, 10 mM ammonium sulfate, 0.1% Triton X-100, 10 mM MgCl2, 37° C., 40 nM enzyme, 10 nM DNA, 100 nM dNTP-F1. N1 nucleotides are scarred (see FIG. 1 panel B).
# [2] = tested on: incorrect dNTP-F1s opposite dA in the template; assay: Fidelity: misincorporation of the three incorrect dNTP-F1s opposite dA in the template; assay type: biochemical; conditions: even after 90 minutes
# Description: To examine the fidelity of Taq197, the misincorporation of the three incorrect dNTP-F1s opposite dA in the template was characterized. […] Thus, based on the detection limit of the assay, it was possible to set an upper limit of 5.6×10^−4 min^−1 for the rate of mispair formation, making correct incorporation of modified nucleotides more than 5,000-fold more efficient than mispair formation.
substance,measurement,setting,value
Taq: wild type full length T. aquaticus DNA polymerase I (Taq),rate of incorporation of dNTP-F1,"[1]; dNTP-F1 C, N1N1N1/N2N2N2 AAA/UUU",0.002 ± 0.0002 min⁻¹
same,rate of incorporation of dNTP-F1,"[1]; dNTP-F1 G, N1N1N1/N2N2N2 UIJU/AAA",0.14 ± 0.05 min⁻¹
same,rate of incorporation of dNTP-F1,"[1]; dNTP-F1 N = A, N1N1N1/N2N2N2 UUU/AAA",0.011 ± 0.002 min⁻¹
same,rate of incorporation of dNTP-F1,"[1]; dNTP-F1 U, N1N1N1/N2N2N2 CCC/GGG",0.05 ± 0.02 min⁻¹
same,synthesis of mispairs,[2],does not measurably synthesize any of the mispairs
